What was measured:
NF-κ B activation = experiment: Inhibitory activity of NF-κB activation, luciferase reporter assay under TNF-α stimulation in HepG2; assay type: cell-based, human; conditions: HepG2, TNF-α 40 ng/ml, 4 hours; for inhibition at 1 µg/mL / inhibition at 10 µg/mL: Homo sapiens, read-out: Inhibitory rate against NF-κB activation (%)
Summary of the method: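 HepG2 cells transiently transfected with luciferase reporter carrying five tandem NF-κB binding sites, then stimulated with TNF-α (40 ng/ml) ± compound for 4 hours. Luminescent luciferase activity measured; inhibition expressed relative to activity without compound.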

AP-1 activation [1] = experiment: Inhibition against AP-1 activation by TNF α stimulation, luciferase reporter assay in HeLa; assay type: cell-based, human; conditions: TNF-α 40 ng/ml, 4 hours
Experimental: Measurement of Inhibition Against AP-1 Activation by TNF α Stimulation
Using a transfection reagent(Effectene; QIAGEN), the human uterine cancer cell strain HeLa was transfected with a plasmid(pAP-1-Luc Reporter Plasmid: […]) integrated with an oligonucleotide having seven tandem copies of AP-1 binding sequences(TGACTAA) on an upstream region of firefly luciferase gene(Luc) according to the QIAGEN's protocol, and the cells were incubated for 6 to 24 hours. After addition of TNF-α (40 ng/ml) in the presence or absence of a test compound, the cells were incubated for 4 hours, and intracellular luciferase activity was measured by using PicaGene LT(TOYO INK MFG Co., Ltd.) and a chemical luminescence measurement apparatus([…]luor Plus; TECAN). The inhibitory ratio was measured as a ratio relative to the value of the luciferase activity in the absence of the test compound.

GSK3 β = experiment: Amount of phosphorylated GSK3 β in MOLT-4F cells; assay type: cell-based, human; conditions: 2 μM, 24 hours
Experimental: When Compound No. 4 (2 μM) of the present invention was allowed to act on MOLT-4F cells(human leukemia cells) for 24 hours, the amount of phosphorylated GSK3 β, produced by phosphorylation of GSK3 β, was increased, and it is well presumed that similar phenomena may possibly occur in nerve cells. Since GSK3 β is inactivated by the phosphorylation, it is considered that the increase of the amount of the phosphorylated GSK3 β substantially means the inhibition of GSK3 β. […] (Refer to “The Biochemical Journal”, (England), 2001, Vol. 359, No. PT1, p. 1-16; “Current Opinion in Neurobiology”, (England), 2002, Vol. 12, No. 3, p. 275-278; “Trends in Molecular Medicine”, (England), 2002, Vol. 8, No. 3, p. 126-132; “Proceedings of The National Academy of Sciences of The United States of America”, (USA), 1996, Vol. 93, No. 7, p. 2719-2723; “The Journal of Biological Chemistry”, (USA), 2002, Vol. 277, No. 44, p. 42060-42065; “Proceedings of The National Academy of Sciences of The United States of America”, (USA), 2003, Vol. 100, No. 2, p. 721-726; “Annals of The New York Academy of Sciences”, (USA), 2000, Vol. 920, p. 107-114; “Nature”, (England), 2003, Vol. 423, No. 6938, p. 435-439; and “Neuron”, (USA), 2003, Vol. 38, No. 4, p. 555-565.)

[2] = test system: rat hippocampus injected with human β amyloid; experiment: Inhibitory activity against hypoplasia of memory formation (LTP), Alzheimer's model by injection of human β amyloid into the rat hippocampus; assay type: in vivo; conditions: 30 mg/kg intraperitoneally once a day, FIG. 1
From the text: Several places of rat hippocampus were infused with a 1:1 mixture of A β 1-40 and A β 1-43 which are human β amyloids (Aβ) for 7 continuous days by the microinjection method. On the 8th day, bipolar stimulating electrodes were fixed to the perforate pathway, and recording electrodes were fixed to the stratum moleculare of the hippocampus dentate gyrus under urethane anesthesia. A mono-synaptic reaction was searched by about 14 to 20 mV of test pulse from the stimulating electrode. Long-term potentiations (LTP: neurophysiological memory model phenomena) were compared by the test simulation and tetanic stimulation, and the existence of hypoplasia of memory formation was verified which is a problem in Alzheimer's disease. Three days before the start of the injection of β amyloid, saline for the control group and the test compound (30 mg/kg) for the dosing group were administered intraperitoneally once a day, and a comparison of LTP was carried out.

AP-1 activation [3] = experiment: Inhibition against AP-1 activation by forced expression of MEKK-1, luciferase reporter assay in HepG2; assay type: cell-based, human; conditions: HepG2, MEKK-1 forced expression, 24 hours
Experimental: Measurement of Inhibition Against AP-1 Activation by Forced Expression of MEKK-1
Using a transfection reagent (Effectene; QIAGEN), the human hepatoma cell strain HepG2 was cotransfected with a plasmid (pAP-1-Luc Reporter Plasmid: […]) integrated with an oligonucleotide having seven tandem copies of AP-1 binding sequences (TGACTAA) on an upstream region of firefly luciferase gene (Luc) and the MEKK-1 expression plasmid (pFCMEKK: […]) according to the QIAGEN's protocol, and the cells were incubated for 20 to 24 hours. Then the cells were incubated in the presence or absence of a test compound for 24 hours, and then intracellular luciferase activity was measured by using PicaGene LT (TOYO INK MFG Co., Ltd.) and a chemical luminescence measurement apparatus ([…]luor Plus; TECAN). The inhibitory ratio was measured as a ratio relative to the value of the luciferase activity in the absence of the test compound.

SMILES	Inhibitory rate against NF-κB activation (%) (NF-κ B activation; Drug concentration at 1 μg/mL)	Inhibitory rate against NF-κB activation (%) (NF-κ B activation; Drug concentration at 10 μg/mL)	Inhibitory rate against AP-1 activation(%) (AP-1 activation [1]; Drug concentration at 10 μg/mL)	also measured
O=C(Nc1cc(C(F)(F)F)cc(C(F)(F)F)c1)c1cc(Cl)ccc1O [compound 4, N-[3,5-bis(trifluoromethylphenyl)]-5-chloro-2-hydroxybenzamide]	95.7	97.5	89.1	Inhibitory rate against AP-1 activation(%) (AP-1 activation [1]; Drug concentration at 1 μg/mL): 42.4%; amount of phosphorylated GSK3 β (GSK3 β): increased; inhibitory activity against hypoplasia of memory (LTP) [2]: inhibitory activity against hypoplasia of memory
O=C(Nc1cc(C(F)(F)F)cc(C(F)(F)F)c1)c1cc(-c2ccsc2)ccc1O [compound 29]	81.7	92.9	51.5	
O=C(Nc1cc(C(F)(F)F)cc(C(F)(F)F)c1)c1cc(C(=O)N2CCC(Cc3ccccc3)CC2)ccc1O [compound 40, N-[3,5-Bis(trifluoromethyl)phenyl]-2-hydroxy-5-(4-benzylpiperidine-1-carbonyl)-benzamide]				inhibition at 1 µg/mL (NF-κ B activation; Drug concentration at 1 μg/mL): 44.9%; inhibition at 10 µg/mL (NF-κ B activation; Drug concentration at 10 μg/mL): 96%; melting point: 179 to 180 °C
CC(=O)Nc1cc(O)c(C(=O)Nc2cc(C(F)(F)F)cc(C(F)(F)F)c2)cc1Cl [compound 50, 4-Acetylamino-N-[3,5-bis(trifluoromethyl)phenyl]-5-chloro-2-hydoxybenzamide]	69.9	96.0		Inhibitory ratio of AP-1 activation(%) (AP-1 activation [3]; Drug concentration 1 μM): 90.7%; Inhibitory ratio of AP-1 activation(%) (AP-1 activation [3]; Drug concentration 1 μg/mL): 99.4%
O=C(Nc1cc(C(F)(F)F)cc(C(F)(F)F)c1)c1cc(Cl)cnc1O [compound 75]	58.1	82.2	56.7	Inhibitory rate against AP-1 activation(%) (AP-1 activation [1]; Drug concentration at 1 μg/mL): 33.3%
CC(=O)Oc1ccccc1C(=O)Nc1cc(Cl)cc(Cl)c1 [compound 120, 2-acetoxy-N-(3,5-dichlorophenyl)benzamide]				inhibition at 1 µg/mL (NF-κ B activation; Drug concentration at 1 μg/mL): 88.6%; inhibition at 10 µg/mL (NF-κ B activation; Drug concentration at 10 μg/mL): 97.5%; melting point: 218 to 219 °C
O=C(Nc1cc(Cl)cc(Cl)c1)c1cc(F)ccc1O [compound 124]	94.2	97.0	67.7	
O=C(Nc1cc(Cl)cc(Cl)c1)c1cc(Cl)ccc1O [compound 125]	84.5	96.8	74.8	Inhibitory rate against AP-1 activation(%) (AP-1 activation [1]; Drug concentration at 1 μg/mL): 22.7%
O=C(Nc1cc(Cl)cc(Cl)c1)c1cc(Br)ccc1O [compound 126]	77.1	92.8	83.8	Inhibitory rate against AP-1 activation(%) (AP-1 activation [1]; Drug concentration at 1 μg/mL): 39.3%
O=C(Nc1cc(Cl)cc(Cl)c1)c1cc(I)ccc1O [compound 127]	85.4	97.1	75.4	
O=C(Nc1nc(C(F)(F)F)c(Br)s1)c1cc(Br)ccc1O [compound 187]	85.3	94.4	49.9	
CCc1sc(NC(=O)c2cc(Br)ccc2O)nc1C(C)(C)C [compound 195, 5-Bromo-N-{4-[(1,1-dimethyl)ethyl]-5-ethylthiazol-2-yl}-2-hydroxybenzamide]				inhibition at 1 µg/mL (NF-κ B activation; Drug concentration at 1 μg/mL): 90.5%; inhibition at 10 µg/mL (NF-κ B activation; Drug concentration at 10 μg/mL): 98.1%; Inhibitory ratio of AP-1 activation(%) (AP-1 activation [3]; Drug concentration 1 μM): 91.2%; Inhibitory ratio of AP-1 activation(%) (AP-1 activation [3]; Drug concentration 1 μg/mL): 95.5%
CC(C)(C)C(=O)c1sc(NC(=O)c2cc(Cl)ccc2O)nc1C(C)(C)C [compound 199, 5-Chloro-N-{4-[(1,1-dimethyl)ethyl]-5-[(2,2-dimethyl)propionyl]thiazol-2-yl}-2-hydroxybenzamide]				inhibition at 1 µg/mL (NF-κ B activation; Drug concentration at 1 μg/mL): 96.4%; inhibition at 10 µg/mL (NF-κ B activation; Drug concentration at 10 μg/mL): 98.4%; Inhibitory ratio of AP-1 activation(%) (AP-1 activation [3]; Drug concentration 1 μg/mL): 70.6%
O=C(Nc1nc(-c2ccccc2)c(-c2ccccc2)s1)c1cc(Br)ccc1O [compound 211]		67.0	29.7	
CCOC(=O)c1sc(NC(=O)c2cc(-c3ccccc3)ccc2O)nc1-c1ccccc1 [compound 225]	34.6		33.5	
